Assay: xn = mol fraction of the nth substance listed
Details: 102 kPa, Liquid; for viscosity: Concentric cylinders viscometry; for speed of sound: Frequency=3 MHz, Single path-length method; for mass density: Vibrating tube method

CCCCCCCCCCC1CCCCC1 [decylcyclohexane] + CCCCCCCCCCCCCCCC
Details	mass density [kg/m3]	speed of sound [m/s]	viscosity [mPa·s]
293.15 K, x1 = 0.2	781.98	1366.2	3.73
293.15 K, x1 = 0.4	790.75	1375.8	4.03
293.15 K, x1 = 0.4999	795.26	1380.7	4.19
293.15 K, x1 = 0.6008	799.82	1385.6	4.36
293.15 K, x1 = 0.7237	805.48	1392	4.63
293.15 K, x1 = 1	818.55	1406.7	5.32
303.15 K, x1 = 0.2	775.08	1329	2.95
303.15 K, x1 = 0.4	783.89	1338.4	3.16
303.15 K, x1 = 0.4999	788.42	1343.3	3.29
303.15 K, x1 = 0.6008	792.99	1348.3	3.41
303.15 K, x1 = 0.7237	798.67	1354.7	3.6
303.15 K, x1 = 1	811.78	1369.4	4.09
313.15 K, x1 = 0.2	768.19	1292.6	2.39
313.15 K, x1 = 0.4	777.04	1301.9	2.54
313.15 K, x1 = 0.4999	781.59	1306.8	2.64
313.15 K, x1 = 0.6008	786.18	1311.8	2.73
313.15 K, x1 = 0.7237	791.88	1318.3	2.87
313.15 K, x1 = 1	805.02	1333	3.23
323.15 K, x1 = 0.2	761.3	1256.8	1.97
323.15 K, x1 = 0.4	770.2	1266.2	2.09
323.15 K, x1 = 0.4999	774.76	1271.1	2.18
323.15 K, x1 = 0.6008	779.37	1276.2	2.24
323.15 K, x1 = 0.7237	785.08	1282.7	2.34
323.15 K, x1 = 1	798.27	1297.5	2.62
333.15 K, x1 = 0.2	754.42	1221.9	1.65
333.15 K, x1 = 0.4	763.35	1231.6	1.75
333.15 K, x1 = 0.4999	767.92	1236.3	1.81
333.15 K, x1 = 0.6008	772.55	1241.5	1.87
333.15 K, x1 = 0.7237	778.28	1248.2	1.95
333.15 K, x1 = 1	791.5	1262.9	2.16
343.15 K, x1 = 0.2	747.5	–	1.42
343.15 K, x1 = 0.4	756.5	–	1.48
343.15 K, x1 = 0.4999	761.3	–	1.54
343.15 K, x1 = 0.6008	765.8	–	1.58
343.15 K, x1 = 0.7237	771.6	–	1.64
343.15 K, x1 = 1	784.8	–	1.82
353.15 K, x1 = 0.2	740.7	–	1.21
353.15 K, x1 = 0.4	749.7	–	1.28
353.15 K, x1 = 0.4999	754.4	–	1.32
353.15 K, x1 = 0.6008	759	–	1.36
353.15 K, x1 = 0.7237	764.8	–	1.41
353.15 K, x1 = 1	778	–	1.55
363.15 K, x1 = 0.2	733.7	–	1.08
363.15 K, x1 = 0.4	742.8	–	1.1
363.15 K, x1 = 0.4999	747.6	–	1.17
363.15 K, x1 = 0.6008	752.1	–	1.18
363.15 K, x1 = 0.7237	758	–	1.22
363.15 K, x1 = 1	771.2	–	1.34
373.15 K, x1 = 0.2	726.8	–	0.926
373.15 K, x1 = 0.4	735.9	–	0.979
373.15 K, x1 = 0.4999	740.7	–	1.01
373.15 K, x1 = 0.6008	745.2	–	1.04
373.15 K, x1 = 0.7237	751.1	–	1.07
373.15 K, x1 = 1	764.4	–	1.17
